Legend:
FLK-1 receptor = target: T1, FLK-1 receptor (Mus musculus, UniProt P35918); experiment: FLK-1 ELISA (kinase activity of the FLK-1 receptor in FLK-1/NIH3T3 cells, VEGF stimulated); type: cell-based
T1 construct: expressed in transfected cells; host or cells: NIH3T3 C7#3
Outline: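 FLK-1-expressing NIH3T3 C7#3 cells, starved overnight in 0.1% FBS medium, were treated with compounds at a 1:200 final dilution (0.5% DMSO) for 2 h at 37 °C, with VEGF stimulation. FLK-1 kinase activity was read by ELISA on anti-rabbit IgG plates using affinity-purified anti-FLK-1 antiserum.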

PDGF-R = PDGF-R (Homo sapiens, UniProt P09619); experiment: PDGF-R ELISA; type: cell-based
Sequence of PDGF-R (P09619 33-1106, species assumed): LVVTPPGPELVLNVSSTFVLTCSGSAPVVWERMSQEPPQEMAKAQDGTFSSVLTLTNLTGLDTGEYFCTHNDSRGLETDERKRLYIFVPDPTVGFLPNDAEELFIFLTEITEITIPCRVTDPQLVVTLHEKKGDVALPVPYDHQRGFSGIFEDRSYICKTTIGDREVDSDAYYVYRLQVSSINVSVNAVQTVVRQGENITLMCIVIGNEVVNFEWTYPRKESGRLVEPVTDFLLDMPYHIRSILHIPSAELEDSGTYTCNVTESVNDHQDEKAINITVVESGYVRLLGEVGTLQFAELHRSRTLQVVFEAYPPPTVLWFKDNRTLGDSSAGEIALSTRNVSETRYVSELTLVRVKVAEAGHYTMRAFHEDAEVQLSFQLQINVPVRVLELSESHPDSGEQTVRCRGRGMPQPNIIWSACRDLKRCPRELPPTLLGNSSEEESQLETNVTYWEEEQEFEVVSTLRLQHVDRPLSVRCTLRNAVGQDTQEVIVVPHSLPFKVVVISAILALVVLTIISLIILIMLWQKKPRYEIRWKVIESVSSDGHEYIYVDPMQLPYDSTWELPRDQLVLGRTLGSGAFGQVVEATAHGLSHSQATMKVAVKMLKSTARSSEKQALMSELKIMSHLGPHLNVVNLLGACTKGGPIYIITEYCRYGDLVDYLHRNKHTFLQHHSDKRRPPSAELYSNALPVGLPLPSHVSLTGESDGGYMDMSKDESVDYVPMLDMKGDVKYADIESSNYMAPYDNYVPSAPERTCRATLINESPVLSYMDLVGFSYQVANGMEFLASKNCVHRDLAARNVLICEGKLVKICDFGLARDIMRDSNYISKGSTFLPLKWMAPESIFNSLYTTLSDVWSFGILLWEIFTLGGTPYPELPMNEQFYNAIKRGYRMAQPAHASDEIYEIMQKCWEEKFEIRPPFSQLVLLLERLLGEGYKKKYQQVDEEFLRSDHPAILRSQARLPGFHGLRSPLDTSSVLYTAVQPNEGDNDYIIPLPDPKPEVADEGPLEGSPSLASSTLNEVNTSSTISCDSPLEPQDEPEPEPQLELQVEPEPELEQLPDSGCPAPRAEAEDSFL
Source text: A PDGF-R ELISA is described in International Patent Publication No. WO 96/40116, published December 19, 1996 by Tang et al.

MET = MET biochemical kinase assay; design: species or system human; concentration or dose not given beside the values
Outline: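 Human MET was captured from cell lysates onto ELISA plates via goat anti-rabbit Fc and rabbit polyclonal antibody to the MET cytoplasmic domain. After washing, test compounds and kinase buffer with ATP and divalent metal ions were added. Phosphotyrosine was detected with HRP-conjugated anti-phosphotyrosine antibody and TMB colorimetric read-out.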

T1 sequence (P35918 20-1345): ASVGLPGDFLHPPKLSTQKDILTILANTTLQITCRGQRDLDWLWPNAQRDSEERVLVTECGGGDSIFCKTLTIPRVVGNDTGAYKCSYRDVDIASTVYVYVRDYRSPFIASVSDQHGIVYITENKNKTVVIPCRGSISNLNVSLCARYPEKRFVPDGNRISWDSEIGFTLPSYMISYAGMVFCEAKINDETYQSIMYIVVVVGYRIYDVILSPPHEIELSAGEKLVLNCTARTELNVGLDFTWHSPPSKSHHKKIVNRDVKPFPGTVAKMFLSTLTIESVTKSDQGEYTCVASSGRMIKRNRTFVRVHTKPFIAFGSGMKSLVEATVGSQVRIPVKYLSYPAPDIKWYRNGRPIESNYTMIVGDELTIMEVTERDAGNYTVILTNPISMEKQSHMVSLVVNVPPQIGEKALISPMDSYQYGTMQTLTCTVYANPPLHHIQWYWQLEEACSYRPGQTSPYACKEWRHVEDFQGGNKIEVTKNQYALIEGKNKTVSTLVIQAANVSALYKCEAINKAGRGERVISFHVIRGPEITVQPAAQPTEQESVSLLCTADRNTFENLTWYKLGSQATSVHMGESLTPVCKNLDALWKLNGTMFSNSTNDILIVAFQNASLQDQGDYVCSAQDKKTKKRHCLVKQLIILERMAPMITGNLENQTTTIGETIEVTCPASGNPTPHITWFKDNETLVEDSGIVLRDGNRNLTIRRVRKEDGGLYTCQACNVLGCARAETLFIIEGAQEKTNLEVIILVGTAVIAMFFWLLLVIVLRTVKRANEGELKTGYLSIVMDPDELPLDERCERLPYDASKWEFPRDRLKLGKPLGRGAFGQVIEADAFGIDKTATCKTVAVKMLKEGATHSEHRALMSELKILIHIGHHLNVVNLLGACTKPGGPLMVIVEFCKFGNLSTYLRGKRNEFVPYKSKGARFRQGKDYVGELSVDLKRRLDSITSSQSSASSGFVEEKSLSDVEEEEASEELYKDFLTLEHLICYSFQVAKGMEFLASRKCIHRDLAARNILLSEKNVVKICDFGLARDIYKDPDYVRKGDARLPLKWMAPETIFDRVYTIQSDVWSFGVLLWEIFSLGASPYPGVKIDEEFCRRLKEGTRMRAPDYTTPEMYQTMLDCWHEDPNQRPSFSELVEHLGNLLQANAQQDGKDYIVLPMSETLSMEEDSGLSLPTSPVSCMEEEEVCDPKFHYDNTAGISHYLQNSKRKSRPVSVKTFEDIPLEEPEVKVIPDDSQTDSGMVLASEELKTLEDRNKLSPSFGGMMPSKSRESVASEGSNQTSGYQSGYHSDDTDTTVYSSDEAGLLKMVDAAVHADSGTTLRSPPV

SMILES: O=C1Nc2ccc(S(=O)(=O)N3CCOCC3)cc2C1=Cc1ccc([N+](=O)[O-])cc1 [10734/F06]
- Fik Kinase %Inhibition (FLK-1 receptor): 11.0%
- PDGF Kinase %Inhibition (PDGF-R): -21.4%
- Met Kinase % Inhibition (MET): 64.2%

SMILES: CC(C)(C)c1ccc(C=C2C(=O)Nc3ccc(CCCl)cc32)cc1 [10734/G10]
- Fik Kinase %Inhibition (FLK-1 receptor): 10.8%
- PDGF Kinase %Inhibition (PDGF-R): 9.9%
- Met Kinase % Inhibition (MET): 19.3%

SMILES: CCN(CC)c1ccc(C=C2C(=O)Nc3ccc(CCCl)cc32)c(O)c1 [10734/G05]
- Fik Kinase %Inhibition (FLK-1 receptor): 7.4%
- PDGF Kinase %Inhibition (PDGF-R): 2.9%
- Met Kinase % Inhibition (MET): 57.7%

SMILES: O=C1Nc2ccc(S(=O)(=O)Nc3ccc(C(F)(F)F)cc3)cc2C1=Cc1ccc(O)c(Br)c1 [10734/E09]
- Fik Kinase %Inhibition (FLK-1 receptor): 8.0%
- PDGF Kinase %Inhibition (PDGF-R): 1.1%
- Met Kinase % Inhibition (MET): 96.2%

SMILES: O=C1Nc2ccc(CCCl)cc2C1=Cc1cc(Br)cc(Br)c1O [10734/G07]
- Fik Kinase %Inhibition (FLK-1 receptor): 21.9%
- PDGF Kinase %Inhibition (PDGF-R): -25.0%
- Met Kinase % Inhibition (MET): 96.6%

SMILES: O=C1Nc2ccc(S(=O)(=O)N3CCOCC3)cc2C1=Cc1cc(Cl)ccc1O [10734/F04]
- Fik Kinase %Inhibition (FLK-1 receptor): -2.6%
- PDGF Kinase %Inhibition (PDGF-R): 25.0%
- Met Kinase % Inhibition (MET): 76.5%

SMILES: O=C1Nc2ccc(S(=O)(=O)Nc3ccc(C(F)(F)F)cc3)cc2C1=Cc1cc(Cl)ccc1O [10734/E04]
- Fik Kinase %Inhibition (FLK-1 receptor): 10.7%
- PDGF Kinase %Inhibition (PDGF-R): 26.7%
- Met Kinase % Inhibition (MET): 88.9%

SMILES: O=C1Nc2ccc(S(=O)(=O)Nc3ccc(C(F)(F)F)cc3)cc2C1=Cc1ccc(Br)s1 [10734/E11]
- Fik Kinase %Inhibition (FLK-1 receptor): 19.2%
- PDGF Kinase %Inhibition (PDGF-R): 16.1%
- Met Kinase % Inhibition (MET): 67.1%

SMILES: CCOc1cccc(C=C2C(=O)Nc3ccc(S(=O)(=O)N4CCOCC4)cc32)c1O [10734/F02]
- Fik Kinase %Inhibition (FLK-1 receptor): 6.2%
- PDGF Kinase %Inhibition (PDGF-R): 10.4%
- Met Kinase % Inhibition (MET): 55.0%

SMILES: O=C1Nc2ccc(S(=O)(=O)Nc3ccc(C(F)(F)F)cc3)cc2C1=Cc1cc(Br)cc(Br)c1O [10734/E07]
- Fik Kinase %Inhibition (FLK-1 receptor): 27.9%
- PDGF Kinase %Inhibition (PDGF-R): 8.2%
- Met Kinase % Inhibition (MET): 100.8%

SMILES: O=C1Nc2ccc(CCCl)cc2C1=Cc1cc(Cl)ccc1O [10734/G04]
- Fik Kinase %Inhibition (FLK-1 receptor): -1.1%
- PDGF Kinase %Inhibition (PDGF-R): 16.1%
- Met Kinase % Inhibition (MET): 72.1%

SMILES: CCN(CC)c1ccc(C=C2C(=O)Nc3ccc(S(=O)(=O)Nc4ccc(C(F)(F)F)cc4)cc32)c(O)c1 [10734/E05]
- Fik Kinase %Inhibition (FLK-1 receptor): 10.6%
- PDGF Kinase %Inhibition (PDGF-R): 17.9%
- Met Kinase % Inhibition (MET): 63.6%

SMILES: CCN(CC)c1ccc(C=C2C(=O)Nc3ccc(S(=O)(=O)N4CCOCC4)cc32)c(O)c1 [10734/F05]
- Fik Kinase %Inhibition (FLK-1 receptor): 9.8%
- PDGF Kinase %Inhibition (PDGF-R): -1.1%
- Met Kinase % Inhibition (MET): 73.8%

SMILES: CC(C)(C)c1ccc(C=C2C(=O)Nc3ccc(S(=O)(=O)Nc4ccc(C(F)(F)F)cc4)cc32)cc1 [10734/E10]
- Fik Kinase %Inhibition (FLK-1 receptor): 18.5%
- PDGF Kinase %Inhibition (PDGF-R): 29.8%
- Met Kinase % Inhibition (MET): 27.9%

SMILES: O=C1Nc2ccc(S(=O)(=O)N3CCOCC3)cc2C1=Cc1cc(Cl)cc(Cl)c1O [10734/F03]
- Fik Kinase %Inhibition (FLK-1 receptor): 4.2%
- PDGF Kinase %Inhibition (PDGF-R): -24.1%
- Met Kinase % Inhibition (MET): 86.8%

SMILES: O=C1Nc2ccc(S(=O)(=O)Nc3ccc(C(F)(F)F)cc3)cc2C1=Cc1cccc(F)c1O [10734/E08]
- Fik Kinase %Inhibition (FLK-1 receptor): 26.6%
- PDGF Kinase %Inhibition (PDGF-R): 13.0%
- Met Kinase % Inhibition (MET): 89.1%

SMILES: CCOc1cccc(C=C2C(=O)Nc3ccc(CCCl)cc32)c1O [10734/G02]
- Fik Kinase %Inhibition (FLK-1 receptor): 1.5%
- PDGF Kinase %Inhibition (PDGF-R): 14.8%
- Met Kinase % Inhibition (MET): 63.6%

SMILES: O=C1Nc2ccc(S(=O)(=O)N3CCOCC3)cc2C1=Cc1cc(Br)cc(Br)c1O [10734/F07]
- Fik Kinase %Inhibition (FLK-1 receptor): 6.6%
- PDGF Kinase %Inhibition (PDGF-R): -5.1%
- Met Kinase % Inhibition (MET): 95.7%

SMILES: O=C1Nc2ccc(CCCl)cc2C1=Cc1cc(Cl)cc(Cl)c1O [10734/G03]
- Fik Kinase %Inhibition (FLK-1 receptor): 18.7%
- PDGF Kinase %Inhibition (PDGF-R): -3.8%
- Met Kinase % Inhibition (MET): 93.4%

SMILES: O=C1Nc2ccc(CCCl)cc2C1=Cc1ccc(Br)s1 [10734/G11]
- Fik Kinase %Inhibition (FLK-1 receptor): 8.7%
- PDGF Kinase %Inhibition (PDGF-R): -25.4%
- Met Kinase % Inhibition (MET): 20.2%

Source: patent EP1247803A2, “Indolinone compounds suitable for modulation of protein kinases” (Sugen, Inc., priority 1996, dated 1998)
